Reference: the supplement of paper PMC8967900

Columns and labels:
Test in all cases: selective drug sensitivity score (sDSS, relative to normal bone marrow) (sDSS (score)); higher = more potent and effective on the cell line relative to normal bone marrow cells
Conditions in all cases: 72 h
380 = test system: 380
ALL-SIL = test system: ALL-SIL
CCRF-CEM = test system: CCRF-CEM
CCRF-HSB2 = test system: CCRF-HSB2
COG-LL-394h = test system: COG-LL-394h
DND-41 = test system: DND-41
HAL-01 = test system: HAL-01
KARPAS-45 = test system: KARPAS-45
KASUMI-10 = test system: KASUMI-10
KOPN-8 = test system: KOPN-8
LC4-1 = test system: LC4-1
MHH-CALL-2 = test system: MHH-CALL-2
MHH-CALL-3 = test system: MHH-CALL-3
MHH-CALL-4 = test system: MHH-CALL-4
NALL-1 = test system: NALL-1
P12-ICHIKAWA = test system: P12-ICHIKAWA
P30-OHKUBO = test system: P30-OHKUBO
PF-382 = test system: PF-382
REH = test system: REH
SEM cells = test system: SEM cells
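Note: ALL cell lines in 384-well plates, five doses spanning 10,000-fold, each plate scaled between vehicle and 100 µmol/L benzalkonium chloride controls, sDSS an adapted area-under-curve metric.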

Row | SMILES | selective drug sensitivity score 380 | selective drug sensitivity score (ALL-SIL) | selective drug sensitivity score (CCRF-CEM) | selective drug sensitivity score (CCRF-HSB2) | selective drug sensitivity score (COG-LL-394h) | selective drug sensitivity score (DND-41) | selective drug sensitivity score (HAL-01) | selective drug sensitivity score (KARPAS-45) | selective drug sensitivity score (KASUMI-10) | selective drug sensitivity score (KOPN-8) | selective drug sensitivity score (LC4-1) | selective drug sensitivity score (MHH-CALL-2) | selective drug sensitivity score (MHH-CALL-3) | selective drug sensitivity score (MHH-CALL-4) | selective drug sensitivity score (NALL-1) | selective drug sensitivity score (P12-ICHIKAWA) | selective drug sensitivity score (P30-OHKUBO) | selective drug sensitivity score (PF-382) | selective drug sensitivity score (REH) | selective drug sensitivity score (SEM cells)
1 | CN[C@@H](C)C(=O)N[C@H]1CN(C(=O)CC(C)C)CC[C@H]2CC[C@@H](C(=O)NC(c3ccccc3)c3ccccc3)N2C1=O [AT-406] (top concentration 10000 nM) | -1.26 | -1.26 | 1.34 | 1.94 | 5.84 | -1.26 | 3.04 | -1.26 | -1.26 | -1.26 | -1.26 | 2.14 | -1.26 | -1.26 | 5.34 | -1.26 | -1.06 | -1.26 | 5.74 | -1.26
2 | CC(C)(O)CC(=O)NCCn1ccc2ncnc(Nc3ccc(Oc4cccc(C(F)(F)F)c4)c(Cl)c3)c21 [TAK-285] (top concentration 2500 nM) | 0 | 0 | 0.2 | 0 | 0 | 0 | 3.1 | 0 | 0 | 0 | 0 | 1.6 | 0 | 0 | 0.1 | 0 | 0 | 0 | 0.1 | 0
3 | CN(C)C[C@@H]1CCn2cc(c3ccccc32)C2=C(C(=O)NC2=O)c2cn(c3ccccc23)CCO1 [Ruboxistaurin] (top concentration 10000 nM) | 3.96 | -2.94 | -0.34 | 1.36 | 0.76 | -0.44 | 1.16 | -0.14 | 1.96 | 0.86 | 0.16 | 3.66 | -4.24 | 1.46 | -3.04 | -1.74 | 0.46 | -1.34 | -0.54 | 0.66
4 | C=CCc1cccc(/C=N/NC(=O)CN2CCN(Cc3ccccc3)CC2)c1O [PAC-1] (top concentration 10000 nM) | 0.38 | 3.18 | 5.18 | 1.78 | 1.08 | 4.78 | 3.38 | 3.28 | 0.98 | 5.28 | 0.18 | 5.58 | -0.22 | 1.18 | -0.42 | 1.68 | 1.18 | 2.78 | 3.48 | 2.98
5 | COc1cc(Br)c(Nc2nc(-c3c(C)nc4ncccn34)cs2)c(Br)c1 [PTC-209] (top concentration 10000 nM) | -1.48 | 0.42 | 0.52 | 0.72 | -2.58 | -1.18 | 0.42 | 0.02 | 0.92 | 4.82 | 0.12 | 1.92 | -5.08 | -2.68 | -1.78 | 0.42 | 4.52 | -0.68 | 3.62 | 2.42
6 | C=C1C[C@@H]2CC[C@@]34C[C@H]5O[C@H]6[C@@H](O3)[C@H]3O[C@H](CC[C@@H]3O[C@H]6[C@H]5O4)CC(=O)C[C@@H]3[C@@H](OC)[C@@H](C[C@H](O)CN)O[C@H]3C[C@H]3O[C@@H](CC[C@@H]1O2)C[C@@H](C)C3=C [Eribulin] (top concentration 1000 nM) | 24.2 | 23.2 | 19.9 | 22.8 | 6.7 | 9.1 | 4.6 | 21.7 | 20.2 | 27 | 24 | 15.8 | 13.1 | 5.6 | 15.8 | 16.7 | 19.6 | 15.1 | 18.9 | 22.1
7 | C/C(=C\c1csc(C)n1)[C@@H]1C[C@@H]2O[C@]2(C)CCC[C@H](C)[C@H](O)[C@@H](C)C(=O)C(C)(C)[C@@H](O)CC(=O)N1 [Ixabepilone] (top concentration 1000 nM) | 2.08 | 2.98 | 3.08 | 3.18 | 2.18 | 1.28 | 1.78 | 3.68 | 1.58 | 6.98 | 5.08 | 1.88 | -0.42 | 0.58 | 1.68 | 2.58 | 3.78 | 1.68 | 3.78 | 3.58
8 | Cn1nnc2c(C(N)=O)ncn2c1=O [Temozolomide] (top concentration 100000 nM) | 5.66 | 4.66 | 7.16 | 2.06 | -0.04 | -0.04 | -0.04 | 5.76 | -0.04 | -0.04 | -0.04 | 3.36 | 4.76 | -0.04 | -0.04 | 4.96 | 3.36 | 3.16 | 6.66 | 6.46
9 | O=C1c2c(O)ccc(O)c2C(=O)c2c(NCCNCCO)ccc(NCCNCCO)c21 [Mitoxantrone] (top concentration 1000 nM) | 16.3 | 7.44 | 10.8 | 14.2 | 13.2 | 2.84 | 5.64 | -1.66 | 12.7 | 16.3 | 6.74 | 7.34 | 14.4 | 11.1 | -5.06 | 8.84 | 7.84 | -1.86 | 12.6 | 8.04
10 | C#Cc1cccc(Nc2ncnc3cc4c(cc23)OCCOCCOCCO4)c1 [Icotinib] (top concentration 10000 nM) | 3.6 | 0.8 | 0.3 | 2.6 | 0 | 0 | 1.2 | 1.4 | 0 | 5.7 | 3.2 | 4.8 | 1.3 | 0 | 6.5 | 0.6 | 2.1 | 0.5 | 0 | 3
11 | CCOCc1nc2c(N)nc3ccccc3c2n1CC(C)(C)O [Resiquimod] (top concentration 10000 nM) | -4.62 | -4.92 | -4.92 | -4.92 | -4.42 | -4.92 | -4.62 | -4.92 | -2.72 | -4.92 | -4.12 | -4.92 | -4.82 | -4.92 | -4.92 | -4.92 | -2.82 | -4.72 | -4.92 | -4.92
12 | Cc1cnc(NC(=O)Nc2cc(Br)c(C)cc2OC[C@@H]2CNCCO2)cn1 [Rabusertib] (top concentration 1000 nM) | -0.74 | -0.74 | 0.06 | -0.74 | -0.74 | 6.16 | 3.06 | 0.36 | -0.74 | 1.66 | 0.16 | 0.66 | -0.74 | 0.16 | -0.74 | -0.74 | -0.74 | -0.64 | 0.06 | 1.26
13 | CC1(C)NC(=O)N(c2ccc([N+](=O)[O-])c(C(F)(F)F)c2)C1=O [Nilutamide] (top concentration 10000 nM) | -0.48 | 0.82 | -0.48 | -0.48 | -0.48 | -0.38 | 2.82 | -0.48 | 0.22 | -0.48 | -0.48 | 7.92 | -0.48 | 2.02 | 7.02 | -0.48 | -0.18 | -0.08 | 0.22 | -0.48
14 | CC(C)Cn1cnc2c(N)nc3ccccc3c21 [Imiquimod] (top concentration 2500 nM) | 9 | 0 | 0 | 0.4 | 0.8 | 0 | 2.6 | 0 | 0 | 2.7 | 0.3 | 1.7 | 0 | 0.9 | 0 | 0 | 0 | 0 | 5.1 | 0
15 | Cc1c(F)cc(C(=O)NC2CC2)cc1-c1ccc(C(=O)NCC(C)(C)C)cn1 [Losmapimod] (top concentration 10000 nM) | -0.18 | -0.18 | -0.18 | -0.08 | -0.18 | -0.18 | -0.08 | -0.18 | -0.18 | 4.42 | 3.32 | -0.18 | -0.18 | -0.18 | -0.18 | -0.18 | 7.82 | 0.02 | -0.18 | -0.18
16 | CC[C@]12C=CCN3CC[C@@]4(c5cc([C@@]6(C(=O)OC)C[C@@H]7C[C@@H](C(C)(F)F)CN(Cc8c6[nH]c6ccccc86)C7)c(OC)cc5N(C)[C@H]4[C@@](O)(C(=O)OC)[C@@H]1OC(C)=O)[C@@H]32 [Vinflunine] (top concentration 1000 nM) | 5.98 | 10.3 | 3.98 | 4.48 | 2.38 | 0.18 | 1.38 | 4.48 | 4.08 | 7.08 | 4.48 | 2.88 | -0.12 | 0.58 | 2.98 | 3.98 | 3.68 | 2.68 | 4.18 | 6.28
17 | O=C(Nc1cccnc1)N1CCC(Cc2cccc(Oc3ccc(C(F)(F)F)cn3)c2)CC1 [PF-3845] (top concentration 10000 nM) | -1.34 | -0.84 | -0.44 | 3.26 | 3.96 | -0.24 | -0.84 | 3.96 | -1.34 | 0.46 | -0.54 | -0.24 | -1.34 | 0.96 | -1.24 | 3.26 | 0.46 | 1.96 | 2.96 | 0.96
18 | Nc1nc2cc(-c3ccc4ncc(C(=O)N5CCOCC5)n4c3)ccc2o1 [Serabelisib] (top concentration 10000 nM) | -0.44 | 0.36 | 0.76 | -1.24 | -1.54 | 0.66 | -1.54 | 0.06 | -1.54 | 2.56 | 0.86 | 3.06 | -1.54 | 0.46 | -0.64 | -1.54 | 1.46 | 0.36 | 0.76 | 1.56
